Results on ten compounds are retold here after US10675352B2 (CENTROSE, LLC, priority 2014, dated 2020).

Each structure is given as a SMILES string. Where two headings read alike, the source gives them in different places.

The test system of series [1] is Ramos. The experiment in a line: cells. To be noted: Homo sapiens, 72 h, read-out: EC50 in picoM, Ramos.
Series [2] deals with SU-DHL-8 cells. Put plainly: cells. To be noted: Homo sapiens, SU-DHL-8, 72 h, read-out: EC50 in picoM, SUDHL8.
The test system of series [3] is HL60, U937, MV411, Hut78, H929, and RAMOS. Put plainly: In vitro cytotoxic activity on six human blood cancer cell types, overall statements. The class given is cell-based. The conditions noted are these: all cell lines tested except RAMOS. How it is done: Agent loading was determined to be about 4.
Series [4] concerns SU-DHL-8 cells. To be noted: agents and agent-linker intermediates; value in parentheses; 3 days incubation.
Series [5] relates to Ramos.

Take `C[C@]12CC[C@H](OC(=O)NCCCN3CCN(CCCN)CC3)C[C@H]1CC[C@@H]1[C@@H]2CC[C@]2(C)[C@@H](C3=CC(=O)OC3)CC[C@]12O`: the EC50 in the series on Ramos [1] and in the series on SU-DHL-8 cells [2] was above 50 nM each time.
On to `CN(CCCN)CCCNC(=O)O[C@H]1CC[C@@]2(C)C(CCC3C2CC[C@]2(C)C(c4ccc(=O)oc4)CC[C@]32O)C1` (stereo in doubt) [CEN-372, 5-[(1S,2S,5S,7R,10R,11S,14S,15R)-5-{3-[N-Methyl(3-aminopropyl)amino]propylaminocarbonyloxy}-11-hydroxy-2,15-dimethyltetracyclo[8.7.0.02,7.011,15]heptadec-14-yl]-2-pyranone], for which the figures for the EC50 in the series with Ramos [1] and in the series on SU-DHL-8 cells [2] were 3.6 nM and 4.4 nM, respectively.
Consider `C[C@]12CC[C@H](OC(=O)NCCCNCCCN)CC1CCC1C2CC[C@]2(C)C(c3ccc(=O)oc3)CC[C@]12O` (stereo in doubt) [CEN-373, 5-{(1S,2S,5S,7R,10R,11S,14S,15R)-5-[3-(3-Aminopropylamino)propylaminocarbonyloxy]-11-hydroxy-2,15-dimethyltetracyclo[8.7.0.02,7.011,15]heptadec-14-yl}-2-pyranone], for which the EC50 (as a rule, the concentration giving half of the maximal effect) in the series with Ramos [1] was 4 nM; in the series with SU-DHL-8 cells [2], 5.9 nM.
Regarding `CC1=C(/C=C/C(C)=C/C=C/C(C)=C/C(=O)O)C(C)(C)CCC1` [ATRA, all-trans-retinoic acid], the “effect of ATRA alone on cell growth” value in series [3] is reported as “slowed cell growth”.
Regarding `C[C@]12CC[C@H](O)C[C@H]1CC[C@@H]1[C@@H]2CC[C@]2(C)[C@@H](c3ccc(=O)oc3)CC[C@]12O` [Bufalin, reference compound], the EC50 is 7.3 nM in the series on Ramos [1] and 16 nM in the series on SU-DHL-8 cells [2].
As for `C[C@]12CCC(OC[C@@H]3OC[C@H](N)C(O)C3O)C=C1CCC1C2CC[C@]2(C)[C@@H](c3ccc(=O)oc3)CC[C@]12O` (some centres unmarked) [CEN09-106], the “% viab., SUDHL8” value in the series on SU-DHL-8 cells [4] is 0%. Further, the EC50 in the series on Ramos [1] was determined as 1.9 nM; with SU-DHL-8 cells [2] it was 2.07 nM.
Take `C[C@]12CC[C@H](OC[C@@H]3OC[C@H](N)C(O)C3O)CC1CCC1C2CC[C@]2(C)[C@@H](C3=CC(=O)OC3)CC[C@]12O` (some centres unmarked) [CEN-319]: the “% viab., Ramos” value in the series on Ramos [5] (human, 3 days) was determined as 0%. Also, the results for the EC50 in the series with Ramos [1] and in the series on SU-DHL-8 cells [2] were 5.8 nM and 8.4 nM, respectively.
On to `C[C@]12CC[C@H](OC(=O)NCCCN3CCN(CCCN)CC3)CC1CCC1C2CC[C@]2(C)[C@@H](c3ccc(=O)oc3)CC[C@]12O` (some centres unmarked) [CEN-371], for which the “% viab., Ramos” value with Ramos [5] (agents and agent-linker intermediates, value in parentheses, 3 days incubation) turned out to be 0%. In addition, the “% viab., SUDHL8” value in the series with SU-DHL-8 cells [4] came to 0%. For the same compound, the EC50 in the series on Ramos [1] was determined as 7.81 nM; with SU-DHL-8 cells [2] it was 11 nM.
For `C[C@]12CC[C@H](O)C[C@H]1CC[C@@H]1[C@@H]2CC[C@]2(C)[C@@H](C3=CC(=O)OC3)CC[C@]12O` [Digitoxigenin, reference compound], the concentration giving a half-maximal response (EC50) in the series with Ramos [1] and in the series with SU-DHL-8 cells [2] was above 50 nM in each case.
For the compound `C[C@]12CC[C@H](O)C=C1CC[C@@H]1[C@@H]2CC[C@]2(C)[C@@H](c3ccc(=O)oc3)CC[C@]12O` [Scillarenin, reference compound], the values for the half-maximal effective concentration (EC50) in the series on Ramos [1] and with SU-DHL-8 cells [2] were 17 nM and 18 nM, respectively.
